Assay results reported in patent US20170190705A1, “Compositions and Methods for Inhibiting BMP” (THE BRIGHAM AND WOMAN'S HOSPITAL, INC., priority 2014, published 2017).

How the values were obtained:
Format in all cases: biochemical
CAMK4 = molecular target: T1, CAMK4 (Homo sapiens, UniProt Q16566); test: Kinome profiling CAMK4; settings: read-out: Inhibitory activity CAMK4; for inhibition at 0.1 µM: 100 nM
T1 sequence (Q16566 1-473): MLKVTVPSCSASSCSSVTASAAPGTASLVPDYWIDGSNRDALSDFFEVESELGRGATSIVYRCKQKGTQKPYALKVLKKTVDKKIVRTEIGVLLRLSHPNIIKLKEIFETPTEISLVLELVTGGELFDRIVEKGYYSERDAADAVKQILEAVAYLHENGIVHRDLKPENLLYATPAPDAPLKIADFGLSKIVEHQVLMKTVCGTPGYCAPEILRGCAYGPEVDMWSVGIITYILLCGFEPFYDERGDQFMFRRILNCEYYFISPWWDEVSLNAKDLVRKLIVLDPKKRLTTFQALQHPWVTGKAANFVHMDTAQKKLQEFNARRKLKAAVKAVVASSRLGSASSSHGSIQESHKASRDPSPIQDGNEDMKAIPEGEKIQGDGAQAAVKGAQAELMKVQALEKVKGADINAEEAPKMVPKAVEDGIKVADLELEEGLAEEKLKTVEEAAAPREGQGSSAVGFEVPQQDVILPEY
Procedure: (§1) . The kinome-wide selectivity was determined following the methods previously reported by Mohedas et al., ACS Chem Biol 2013, 8, 1291-1302 and Sanvitale et al., PLoS One 2013, 8, e62721.

SYK = SYK (Homo sapiens, UniProt P43405); test: Kinome profiling SYK; settings: read-out: Inhibitory activity SYK; for inhibition at 0.1 µM: 100 nM
Procedure: as §1

MSK1 = MSK1 (Homo sapiens, UniProt O75582); test: Kinome profiling MSK1; settings: read-out: Inhibitory activity MSK1; for inhibition at 0.1 µM: 100 nM
Chain of MSK1 (O75582 whole entry): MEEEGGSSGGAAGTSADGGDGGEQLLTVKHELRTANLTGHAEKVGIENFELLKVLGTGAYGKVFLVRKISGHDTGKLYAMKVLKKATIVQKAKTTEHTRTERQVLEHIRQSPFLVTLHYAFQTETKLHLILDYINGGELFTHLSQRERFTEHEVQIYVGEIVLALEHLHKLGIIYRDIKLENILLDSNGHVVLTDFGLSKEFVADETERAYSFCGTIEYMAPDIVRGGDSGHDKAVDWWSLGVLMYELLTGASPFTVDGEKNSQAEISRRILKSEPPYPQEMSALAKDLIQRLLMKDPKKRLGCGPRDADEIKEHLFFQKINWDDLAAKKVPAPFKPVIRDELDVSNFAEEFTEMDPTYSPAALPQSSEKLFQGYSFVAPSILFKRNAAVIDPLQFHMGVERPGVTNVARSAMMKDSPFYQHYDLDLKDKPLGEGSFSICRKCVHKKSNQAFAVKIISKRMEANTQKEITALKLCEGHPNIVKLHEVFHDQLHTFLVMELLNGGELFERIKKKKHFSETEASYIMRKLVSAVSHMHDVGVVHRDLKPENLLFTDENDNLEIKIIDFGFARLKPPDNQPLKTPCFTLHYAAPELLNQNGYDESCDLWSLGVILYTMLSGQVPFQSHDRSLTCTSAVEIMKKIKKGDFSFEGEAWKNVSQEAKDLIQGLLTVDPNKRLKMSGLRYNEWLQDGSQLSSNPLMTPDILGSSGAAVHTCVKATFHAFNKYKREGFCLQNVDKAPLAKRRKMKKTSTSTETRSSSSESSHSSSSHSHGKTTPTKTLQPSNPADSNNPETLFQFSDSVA
Procedure: as §1

HCK = HCK (Homo sapiens, UniProt P08631); test: Kinome profiling HCK; settings: read-out: Inhibitory activity HCK; for inhibition at 0.1 µM: 100 nM
Chain of HCK (P08631 whole entry): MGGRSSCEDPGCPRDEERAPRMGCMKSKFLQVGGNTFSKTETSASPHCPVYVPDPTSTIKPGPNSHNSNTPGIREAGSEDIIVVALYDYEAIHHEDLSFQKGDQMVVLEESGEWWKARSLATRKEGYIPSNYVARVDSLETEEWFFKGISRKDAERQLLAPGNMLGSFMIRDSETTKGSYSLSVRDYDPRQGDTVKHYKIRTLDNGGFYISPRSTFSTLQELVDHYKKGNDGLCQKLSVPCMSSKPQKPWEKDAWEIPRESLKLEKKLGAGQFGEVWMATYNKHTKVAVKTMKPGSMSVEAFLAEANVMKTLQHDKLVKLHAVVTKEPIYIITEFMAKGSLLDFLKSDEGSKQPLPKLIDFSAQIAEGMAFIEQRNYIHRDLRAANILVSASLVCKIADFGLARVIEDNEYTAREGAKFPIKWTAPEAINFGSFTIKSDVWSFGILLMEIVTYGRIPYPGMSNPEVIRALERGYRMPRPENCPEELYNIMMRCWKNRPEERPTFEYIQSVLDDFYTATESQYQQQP
Procedure: as §1

LTK = LTK (Homo sapiens, UniProt P29376); test: Kinome profiling LTK; settings: read-out: Inhibitory activity LTK; for inhibition at 0.1 µM: 100 nM
Chain of LTK (P29376 17-864): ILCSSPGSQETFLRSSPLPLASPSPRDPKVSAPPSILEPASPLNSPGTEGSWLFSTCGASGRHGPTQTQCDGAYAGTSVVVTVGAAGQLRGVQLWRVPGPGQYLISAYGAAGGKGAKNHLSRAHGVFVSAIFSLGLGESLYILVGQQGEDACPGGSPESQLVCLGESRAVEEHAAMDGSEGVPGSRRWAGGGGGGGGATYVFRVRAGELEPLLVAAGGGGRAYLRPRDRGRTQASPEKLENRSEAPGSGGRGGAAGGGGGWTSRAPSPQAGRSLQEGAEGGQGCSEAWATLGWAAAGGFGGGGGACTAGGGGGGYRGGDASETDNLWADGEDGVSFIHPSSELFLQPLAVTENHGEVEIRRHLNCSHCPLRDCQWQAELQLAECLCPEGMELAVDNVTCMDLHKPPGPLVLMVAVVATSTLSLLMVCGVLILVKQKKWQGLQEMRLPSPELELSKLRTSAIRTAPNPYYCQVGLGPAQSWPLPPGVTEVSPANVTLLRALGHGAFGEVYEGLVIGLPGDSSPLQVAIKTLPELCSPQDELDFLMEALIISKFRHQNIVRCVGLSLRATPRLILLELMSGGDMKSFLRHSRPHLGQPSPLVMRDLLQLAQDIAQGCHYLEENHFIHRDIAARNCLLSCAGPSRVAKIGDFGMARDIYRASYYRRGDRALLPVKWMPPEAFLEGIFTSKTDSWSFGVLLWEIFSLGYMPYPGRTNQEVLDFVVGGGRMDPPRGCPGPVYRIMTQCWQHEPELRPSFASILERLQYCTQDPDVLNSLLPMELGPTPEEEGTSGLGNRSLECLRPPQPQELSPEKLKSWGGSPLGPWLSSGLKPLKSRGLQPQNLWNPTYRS
Procedure: as §1

PRKX = molecular target: T2, PRKX (Homo sapiens, UniProt P51817); test: Kinome profiling PRKX; settings: read-out: Inhibitory activity PRKX; for inhibition at 0.1 µM: 100 nM
T2 sequence (P51817 1-358): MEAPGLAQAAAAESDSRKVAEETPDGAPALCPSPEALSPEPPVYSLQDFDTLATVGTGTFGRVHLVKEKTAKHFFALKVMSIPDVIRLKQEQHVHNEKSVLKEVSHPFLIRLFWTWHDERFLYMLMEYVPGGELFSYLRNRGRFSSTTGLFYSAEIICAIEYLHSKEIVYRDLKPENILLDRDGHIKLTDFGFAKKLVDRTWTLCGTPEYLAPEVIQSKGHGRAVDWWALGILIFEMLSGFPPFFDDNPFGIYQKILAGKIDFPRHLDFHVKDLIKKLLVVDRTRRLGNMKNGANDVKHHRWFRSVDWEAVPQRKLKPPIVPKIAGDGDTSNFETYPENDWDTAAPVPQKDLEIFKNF
Procedure: as §1

CDK3/cyclinE = CDK3/cyclinE (Homo sapiens, UniProt Q00526); test: Kinome profiling CDK3/cyclinE; settings: read-out: Inhibitory activity CDK3/cyclinE; for inhibition at 0.1 µM: 100 nM
Chain of CDK3/cyclinE (Q00526 whole entry): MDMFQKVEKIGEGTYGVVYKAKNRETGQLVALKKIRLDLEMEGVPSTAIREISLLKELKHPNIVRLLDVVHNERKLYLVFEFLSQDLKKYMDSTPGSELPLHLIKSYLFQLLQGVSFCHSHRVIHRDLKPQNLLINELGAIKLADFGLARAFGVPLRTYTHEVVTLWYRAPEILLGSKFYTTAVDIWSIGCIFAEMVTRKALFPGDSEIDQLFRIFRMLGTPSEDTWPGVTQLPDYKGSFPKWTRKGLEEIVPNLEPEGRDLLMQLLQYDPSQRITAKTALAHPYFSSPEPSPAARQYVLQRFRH
Chain of CDK3/cyclinE (P24864 whole entry partner): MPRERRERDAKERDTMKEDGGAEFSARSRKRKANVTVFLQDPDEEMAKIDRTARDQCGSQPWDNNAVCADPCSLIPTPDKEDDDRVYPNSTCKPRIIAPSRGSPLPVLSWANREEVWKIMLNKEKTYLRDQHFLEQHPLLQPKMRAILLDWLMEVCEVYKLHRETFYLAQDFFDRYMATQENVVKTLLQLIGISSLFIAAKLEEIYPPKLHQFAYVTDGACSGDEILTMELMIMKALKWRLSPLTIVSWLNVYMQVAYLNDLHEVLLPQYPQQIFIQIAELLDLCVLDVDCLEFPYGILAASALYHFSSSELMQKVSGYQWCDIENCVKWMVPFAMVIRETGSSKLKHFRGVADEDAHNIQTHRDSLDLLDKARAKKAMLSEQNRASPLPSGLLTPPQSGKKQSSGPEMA
Procedure: as §1

HIPK4 = molecular target: T3, HIPK4 (Homo sapiens, UniProt Q8NE63); test: Kinome profiling HIPK4; settings: read-out: Inhibitory activity HIPK4; for inhibition at 0.1 µM: 100 nM
T3 sequence (Q8NE63 1-616): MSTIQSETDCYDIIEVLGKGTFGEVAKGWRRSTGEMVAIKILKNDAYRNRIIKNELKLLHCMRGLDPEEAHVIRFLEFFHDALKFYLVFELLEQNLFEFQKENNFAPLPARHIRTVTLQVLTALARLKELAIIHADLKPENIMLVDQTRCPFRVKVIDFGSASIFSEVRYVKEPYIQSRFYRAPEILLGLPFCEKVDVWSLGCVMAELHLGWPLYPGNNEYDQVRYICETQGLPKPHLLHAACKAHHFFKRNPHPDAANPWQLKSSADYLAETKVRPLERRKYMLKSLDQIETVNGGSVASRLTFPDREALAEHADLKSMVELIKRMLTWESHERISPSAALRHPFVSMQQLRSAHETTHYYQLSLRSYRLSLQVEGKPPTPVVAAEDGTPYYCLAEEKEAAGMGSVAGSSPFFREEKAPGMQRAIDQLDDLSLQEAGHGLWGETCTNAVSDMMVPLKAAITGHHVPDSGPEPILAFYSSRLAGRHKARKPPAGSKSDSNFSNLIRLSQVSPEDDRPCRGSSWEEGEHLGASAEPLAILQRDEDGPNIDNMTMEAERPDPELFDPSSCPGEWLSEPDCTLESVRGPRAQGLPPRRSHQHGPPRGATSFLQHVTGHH
Procedure: as §1

RSK3 = RSK3 (Homo sapiens, UniProt Q15349); test: Kinome profiling RSK3; settings: read-out: Inhibitory activity RSK3; for inhibition at 0.1 µM: 100 nM
Chain of RSK3 (Q15349 whole entry): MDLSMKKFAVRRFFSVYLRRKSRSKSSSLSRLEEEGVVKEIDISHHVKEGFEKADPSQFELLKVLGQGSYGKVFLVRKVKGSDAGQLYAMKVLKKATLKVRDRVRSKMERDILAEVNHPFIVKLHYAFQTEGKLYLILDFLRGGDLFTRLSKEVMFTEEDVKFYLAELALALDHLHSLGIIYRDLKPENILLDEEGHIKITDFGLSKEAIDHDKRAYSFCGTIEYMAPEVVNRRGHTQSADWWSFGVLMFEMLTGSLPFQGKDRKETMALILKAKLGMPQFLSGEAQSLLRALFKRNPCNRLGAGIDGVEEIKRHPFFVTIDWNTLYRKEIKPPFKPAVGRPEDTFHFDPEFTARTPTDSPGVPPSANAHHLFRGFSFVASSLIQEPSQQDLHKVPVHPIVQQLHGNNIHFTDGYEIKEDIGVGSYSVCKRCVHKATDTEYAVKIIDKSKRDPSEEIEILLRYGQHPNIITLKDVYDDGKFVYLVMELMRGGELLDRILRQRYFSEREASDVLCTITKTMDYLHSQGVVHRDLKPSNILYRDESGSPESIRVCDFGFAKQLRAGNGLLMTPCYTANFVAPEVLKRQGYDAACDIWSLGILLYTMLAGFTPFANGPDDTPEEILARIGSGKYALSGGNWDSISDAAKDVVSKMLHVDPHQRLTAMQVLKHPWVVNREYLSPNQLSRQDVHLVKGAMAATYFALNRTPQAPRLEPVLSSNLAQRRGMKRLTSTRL
Procedure: as §1

PDK1 = molecular target: T4, PDK1 (Homo sapiens, UniProt O15530); test: Kinome profiling PDK1; settings: read-out: Inhibitory activity PDK1; for inhibition at 0.1 µM: 100 nM
T4 sequence (O15530 1-556): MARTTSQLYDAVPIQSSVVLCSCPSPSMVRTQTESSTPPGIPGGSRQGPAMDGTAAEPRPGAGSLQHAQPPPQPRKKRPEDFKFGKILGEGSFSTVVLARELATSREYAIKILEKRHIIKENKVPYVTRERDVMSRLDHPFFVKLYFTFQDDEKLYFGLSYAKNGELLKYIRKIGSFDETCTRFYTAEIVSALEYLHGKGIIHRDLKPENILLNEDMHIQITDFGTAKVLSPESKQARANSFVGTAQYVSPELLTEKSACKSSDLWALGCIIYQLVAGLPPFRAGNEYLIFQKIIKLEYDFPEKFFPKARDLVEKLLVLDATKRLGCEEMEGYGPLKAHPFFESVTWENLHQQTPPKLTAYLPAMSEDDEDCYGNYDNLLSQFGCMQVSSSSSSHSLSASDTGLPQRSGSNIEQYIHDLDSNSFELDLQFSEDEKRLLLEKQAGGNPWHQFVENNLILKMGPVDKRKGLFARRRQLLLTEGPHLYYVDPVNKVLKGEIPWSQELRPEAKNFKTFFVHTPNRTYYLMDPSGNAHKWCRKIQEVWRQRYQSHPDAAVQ
Procedure: as §1

Row | SMILES | inhibition at 0.1 µM (CAMK4) | inhibition at 1 µM (CAMK4) | inhibition at 0.1 µM (SYK) | inhibition at 1 µM (SYK) | inhibition at 0.1 µM (MSK1) | inhibition at 1 µM (MSK1) | inhibition at 0.1 µM (HCK) | inhibition at 1 µM (HCK) | inhibition at 0.1 µM (LTK) | inhibition at 1 µM (LTK) | inhibition at 0.1 µM (PRKX) | inhibition at 1 µM (PRKX) | inhibition at 0.1 µM (CDK3/cyclinE) | inhibition at 1 µM (CDK3/cyclinE) | inhibition at 0.1 µM (HIPK4) | inhibition at 1 µM (HIPK4) | inhibition at 0.1 µM (RSK3) | inhibition at 1 µM (RSK3) | inhibition at 0.1 µM (PDK1) | inhibition at 1 µM (PDK1)
1 | COc1cc(-c2cc(-c3ccc(N4CCNCC4)cc3)cnc2C)cc(OC)c1OC [Compound 10, 1-(4-(6-methyl-5-(3,4,5-trimethoxyphenyl)pyridin-3-yl)phenyl)piperazine] | 0% | -1% | 0% | -1% | 1% | 0% | 3% | 15% | 4% | 10% | 0% | 1% | 2% | 2% | 5% | 8% | 3% | 3% | 3% | 6%
2 | COc1cc(-c2cc(-c3ccc(N4CCNCC4)cc3)cnc2N)cc(OC)c1OC [Compound 15, 5-(4-(piperazin-1-yl)phenyl)-3-(3,4,5-trimethoxyphenyl)pyridin-2-amine] | 21% | -1% | 1% | -4% | 0% | 0% | 41% | 81% | 13% | 60% | 1% | 0% | 0% | 0% | 1% | 2% | 2% | 3% | 3% | 3%
